{
  "source": "paper PMC4186439",
  "about": "“Characterization of a novel brain barrier ex vivo insect-based P-glycoprotein screening model” (Pharmacology Research & Perspectives, 2014)",
  "key": {"locust brain barrier [1]": {"system": "locust brain barrier", "conditions": "for Concentration-dependent ex vivo brain uptake profile: exposure 3, 10, 30 and 100 μmol/L for 5 min, Fig. 3, n = 3"}, "Pgp efflux transport": {"system": "Pgp efflux transport", "conditions": "3 μmol/L, 5 min, without verapamil; Fig. 5; n = 3"}, "[2]": {"system": "Pgp transporter homologue (Mdr65)", "design": "method as in Mayer et al. [2009]", "conditions": "Drosophila melanogaster; ref Mayer et al. [2009]; cited from earlier work"}, "[3]": {"conditions": "locust hemolymph; injection of 20 μL of 20 μmol/kg dose; samples at 0.08, 0.25, 0.75, 2 and 6 h; n = 6", "method": "Clearance of test compounds from the hemolymph was measured by repeated sampling of 10 μL hemolymph from the individual locust at 5, 15, 45, 120, and 360 min after intrahemolymph administration (20 μL) of the test compound solution (20 μmol/kg body weight). The 10 μL hemolymph samples were added to microcentrifuge tubes (Eppendorf) containing 40 μL ice-cold insect buffer."}, "Pgp transporter [4]": {"system": "Pgp transporter", "conditions": "locust brain barrier model; ref Nielsen et al. [2011]; cited from earlier work"}, "Pgp transporter [5]": {"system": "Pgp transporter", "conditions": "locust ex vivo and mouse Pgp KO/WT; ref Andersson et al. [2013]; Doran et al. [2005]; cited from earlier work"}, "locust brain barrier [6]": {"system": "locust brain barrier", "design": "method as in Andersson et al. [2013]", "conditions": "locust ex vivo model; ref Andersson et al. [2013]; cited from earlier work"}, "Pgp transporter [7]": {"system": "Pgp transporter", "conditions": "3 and 10 μmol/L exposure, 5 min, with and without verapamil; Fig. 4; n = 3"}, "Pgp transporter [8]": {"system": "Pgp transporter", "test": "In vivo locust brain uptake (brain:hemolymph ratio) with or without co-injected Pgp inhibitor CsA", "conditions": "15 min after injection, data not shown"}},
  "data": [
    {"smiles": "NC(=O)N1c2ccccc2C=Cc2ccccc21", "note": "[Cbz, carbamazepine]", "values": [
      {"measurement": "Ratio of permeabilities (dynamic range of the locust ex vivo model)", "setting": "locust brain barrier [1]; Cbz (high permeability) versus atenolol (low permeability)", "value": "~64"},
      {"measurement": "Concentration-dependent ex vivo brain uptake profile", "setting": "locust brain barrier [1]", "value": "linear increase"},
      {"measurement": "Ex vivo brain uptake when exposure temperature raised from 2°C to 30°C", "setting": "Pgp efflux transport", "value": "markedly increased"}
    ]},
    {"smiles": "COC(=O)c1ccccc1-c1c2ccc(=N)cc-2oc2cc(N)ccc12", "note": "[Rho123, rhodamine 123]", "values": [
      {"measurement": "Dm brain concentration when co-injected with the Pgp inhibitor CsA", "setting": "[2]", "value": "increases"}
    ]},
    {"smiles": "CC(C)NCC(O)COc1cccc2ccccc12", "note": "(stereo not drawn) [Propranolol, propranolol]", "values": [
      {"measurement": "Elimination (drug elimination constant calculated from C = Coe^−kt)", "setting": "[3]", "value": "−0.98 ^1 h^−1"}
    ]},
    {"smiles": "C=C[C@H]1C[N@@]2CC[C@H]1C[C@@H]2[C@@H](O)c1ccnc2ccc(OC)cc12", "note": "[Quinidine, quinidine]", "values": [
      {"measurement": "Uptake into the locust brain with Pgp inhibitor verapamil", "setting": "Pgp transporter [4]", "value": "significantly increased"},
      {"measurement": "Ex vivo brain uptake when exposure temperature raised from 2°C to 30°C", "setting": "Pgp efflux transport", "value": "corresponding increase in quinidine uptake was not seen"}
    ]},
    {"smiles": "CN(C)CCCC1(c2ccc(F)cc2)OCc2cc(C#N)ccc21", "note": "(stereo not drawn) [citalopram]", "values": [
      {"measurement": "Pgp transporter efflux liability", "setting": "Pgp transporter [5]", "value": "affected by Pgp transporter efflux"}
    ]},
    {"smiles": "CC(NC(C)(C)C)C(=O)c1cccc(Cl)c1", "note": "(stereo not drawn) [Bupropion]", "values": [
      {"measurement": "Ex vivo brain uptake after increased exposure concentrations", "setting": "locust brain barrier [6]", "value": "more than dose-related"}
    ]},
    {"smiles": "CN(C)C(=O)C(CCN1CCC(O)(c2ccc(Cl)cc2)CC1)(c1ccccc1)c1ccccc1", "note": "[Loperamide, loperamide]", "values": [
      {"measurement": "Ex vivo brain uptake/concentration on co-exposure to verapamil", "setting": "Pgp transporter [7]", "value": "significantly increased"},
      {"measurement": "Concentration-dependent ex vivo brain uptake profile", "setting": "locust brain barrier [1]", "value": "increased more than linearly"},
      {"measurement": "Hemolymph concentration when injected alone or co-injected with CsA", "setting": "Pgp transporter [8]", "value": "no difference"}
    ]}
  ]
}
